Test results taken from PubChem BioAssay AID1769 (NMMLSC, 2009).

biological target: glutathione S-transferase (Schistosoma japonicum GST tag binding GSH beads); experiment: GST–glutathione bead interaction interference profiling – biochemical, multiplex beads, flow cytometry, profiling panel (AID 1769); conditions: flow cytometry fluorescence;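 note: target is a GST and green fluorescent protein fusion captured on glutathione beads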

SMILES	EC50 [µM]
Cc1cccc(/C=N/N(CCO)C2=NS(=O)(=O)c3ccccc32)c1	60.2
Oc1c(CN2CCOCC2)ccc2ccccc12	24.5
O=C(CSc1ccc2nnc(-c3cccc(F)c3)n2n1)N1CCCc2ccccc21	0.16
COc1cc(N2CCCC2)c(OC)cc1/C=C(/C#N)c1cccc(F)c1	1.71
COc1ccc2o/c(=N/NC(=O)c3cccs3)c(C(N)=O)cc2c1	7.29
COc1cccc(C2CC(c3ccccc3)Nc3ncnn32)c1 (stereo not given)	6.49
CCOc1ccccc1C(=O)Nc1cccc(-c2ccc3nncn3n2)c1	1.96
COc1ccc2nc(C)cc(SCC(=O)N/N=C/c3ccc(O)c(O)c3)c2c1	15.7
O=S1(=O)N=C(N(CCO)/N=C/c2ccncc2)c2ccccc21	36.1
CC(C)NC(=S)N=Nc1c(O)[nH]c2ccc([N+](=O)[O-])cc12	1.43
CCOc1cc(/C=N/NC(=O)c2cc(-c3cccnc3)nc3ccccc23)ccc1O	8.65
COc1cc(/C=N/Nc2ncnc3sc4c(c23)CCC4)ccc1O	14.4
O=c1[nH]c(N/N=C/c2ccc(O)cc2)nc2ccccc12	7.68
O=c1c2ccccc2nc2ccc(NCc3cccs3)nn12	6.79
CSc1nc(Cc2ccccc2)cc(=O)[nH]1	31.3
COc1cc2[nH]c(=S)nc(Nc3ccc(NC(C)=O)cc3)c2cc1OC	2.91
O=C1Nc2ccc(Br)cc2C12NNc1ccccc1O2 (stereo not given)	2.38
O=c1nc2c(O)cccn2c2c1c(=O)[nH]c1ccccc12	2.6
COc1cc2[nH]c(=S)nc(NC3CCCCCC3)c2cc1OC	1.32
NC(=O)c1cc2nc(-c3ccco3)cc(C(F)(F)F)n2n1	15.9
CN1CCN(S(=O)(=O)c2cccc(C(=O)Nc3sc4c(c3C(N)=O)CCCC4)c2)CC1	19.8
COc1ccc2c(C)nc(N/C(N)=N/S(=O)(=O)c3ccc(C)cc3)nc2c1	7.51
CCOC(=O)c1c2c3c(c(Cl)ccc3[nH]c1=O)C(=O)c1ccccc1-2	0.4
O=C(/C=C/c1ccc(N2CCC(c3ccccc3)=N2)cc1)c1ccccc1	0.34
COc1cccc2c(SCC(=O)N/N=C/c3ccc(O)cc3O)cc(C)nc12	45.4
O=C(CNC(=O)Cc1ccccc1)N=Nc1c(O)n(Cc2ccc3c(c2)OCO3)c2ccccc12	12
NC1=NC(=O)/C(=C/c2cn(CCC(=O)O)nc2-c2ccc(Cl)cc2)S1	29.2
O=C(Oc1c(Br)cc(C(=S)N2CCOCC2)cc1Br)c1ccc(Cl)cc1	2.97

SMILES	EC50 [µM]
CN(/N=C/c1cccnc1)C1=NS(=O)(=O)c2ccccc21	5.05
CCCCn1c(O)c(/C=C/C=C/C=Nc2ccccc2)sc1=S	0.576
COc1ccc(/C=N/n2c(N)c(S(=O)(=O)c3cccs3)c3nc4ccccc4nc32)cc1OC	0.612
Cc1cc(=O)[nH]c2c(N=Nc3ccc(O)cc3)c(N)nn12	1.4
O=C(CSc1ccccc1)Nc1ccc(C(=O)Nc2cccc(O)c2)cc1	1.9
O=[N+]([O-])c1ccc(/C=C/C2=NN(c3ccccc3)C(c3ccco3)C2)cc1 (stereo not given)	1.34
CCOc1cc(/C=C2\SC(=O)N=C2N)ccc1O	2.47
C/C(=N\Nc1ccc(S(N)(=O)=O)cc1[N+](=O)[O-])c1ccc2c(c1)OCO2	1.4
N#Cc1c(Nc2ccccc2)c(/C=N/N=C/c2ccccc2)c[nH]c1=O	4.1
Nc1c(C(=O)C2CC2)sc2nc(-c3cccs3)cc(C(F)(F)F)c12	19.3
O=C(O)c1cc(C(=O)O)cc(-c2ccc(/C=c3/sc4nc5ccccc5n4c3=O)o2)c1	11.9
CCN(c1ccc(N=Cc2c(O)n(Cc3ccc(OC)cc3)c(=O)c3ccccc23)cc1)C(C)C	0.249
COc1ccc(NC(=O)c2cc3nc(-c4ccccc4)cc(C)n3n2)cc1OC	2.85
NS(=O)(=O)c1ccc(CCN2C(=O)/C(=C\c3ccc(Cl)cc3)SC2=S)cc1	6.03
O=c1c2ccccc2nc2c3ccccc3c(NCc3ccccn3)nn12	3.76
COc1ccc(N=C2S/C(=C\c3ccc(N4CCOCC4)o3)C(=O)N2CCc2c[nH]c3ccccc23)cc1	0.0269
Cc1ccc(-c2csc3nc4c5ccccc5c(NCCCN5CCOCC5)nn4c(=O)c23)cc1	0.346
Cc1ccc(/C=N/N(C)C2=NS(=O)(=O)c3ccccc32)o1	7.42
O=c1c2ccccc2nc2c3ccccc3c(NCc3cccnc3)nn12	0.348
O=C(CSc1ccc2nnc(-c3ccncc3)n2n1)Nc1nccs1	35.1
COCCCNc1nc(=S)[nH]c2cc(OC)c(OC)cc12	15.2
COc1cc2c(cc1OC)-c1cc(NC3CCCCCC3)nc(=O)n1CC2	21
Oc1ccc2ccccc2c1/C=N/Nc1nnc(-c2ncc[nH]2)c2ccccc12	1.96
COc1cc(NC(=O)c2cccs2)c(OC)cc1NC(=O)CCC(=O)Nc1ccc2ncccc2c1	0.481
COC(=O)c1cc(NC(=O)c2cccc(Cl)c2)c(=O)oc1/C=C/Nc1cc(C)cc(C)c1	0.567
N=c1oc2ccc3ccccc3c2cc1-c1nc(-c2ccccc2)cs1	1.4
O=C1/C(=C\c2ccc(-c3ccccc3Cl)o2)SC(=S)N1CC1CCCO1 (stereo not given)	17.3
